One compound from publication PMC12152147, “DDB1 engagement defines the selectivity of S656 analogs for cyclin K degradation over CDK inhibition” (EMBO Reports, 2025) can be followed below.

Broadly, the kinetic solubility is the concentration staying in solution when a stock, usually in DMSO, is diluted into the medium. In general, pIC50 refers to −log10 of the IC50, conventionally taken in molar units.

A short description of data set [1]: Kinetic solubility measurement (HPLC-UV). The conditions noted are these: aqueous buffer, kinetic from dmso stock, αMEM media, nominal 200 μM, room temperature, triplicate. Type of data set: physicochemical. How it is done:
A 40 μL aliquot of a 10 mM DMSO stock solution of S656 was prepared and diluted in αMEM media to achieve a nominal concentration of 200 μM. The samples were incubated with stirring at 1100 rpm for 24 h at room temperature. From the incubation mixture, 20 μL was pipetted, rinsed in acetonitrile (MeCN) for 5 s, then in water for 5 s. Subsequently, 10 μL was discarded, and the remaining 10 μL was transferred to a mixture containing 10 μL of PBS, 980 μL of quenched solution, and 10 μL of DMSO. Analysis was performed using HPLC equipped with a UV-visible detector (HPLC-UV). Chromatography was conducted under reverse-phase conditions with a column temperature of 55 °C on a Waters XSelect HSS T3 column (2.5 μm, 2.1 ×50 mm). The aqueous solvent (solvent A) was ultrapure water with 0.1% formic acid, and the organic eluent (solvent B) was acetonitrile. The injection volume was 4 μL, and the flow rate was set at 0.6 mL/min.

Another data set has as its system CD34+ cord blood cells. The data set is described as follows: Chemical screen / dose response on CD34+ cord blood cells. Type of data set: cell-based, Human. The method, then: Fresh umbilical cord blood units were collected from consenting donors according to ethically approved procedures at St Justine, Maisonneuve-Rosemont (Montréal, QC, Canada) and Charles Le Moyne (Longueuil, QC, Canada, approval reference number AA-HCLM-16-014) Hospitals. Human CD34^+ cells were isolated using the EasySep Human Cord Blood CD34^+ Selection Kit through positive magnetic selection. Chemical screen was performed as described in primary AML with the following modifications: 2000 cord blood cells were seeded, CB media contains StemSpan-ACF supplemented with 100 ng/mL SCF, 100 ng/mL FLT3L, 50 ng/mL TPO, 10 μg/mL LDL, 1× glutamax, gentamicin (50 μg/mL), ciprofloxacin (10 μg/mL), SR1 (500 nmol/L) and UM729 (500 nmol/L).
Dose-response assays in primary AML specimens were performed as in chemical screen (see above) with the exception that compounds were tested in serial dilution (8 dilutions, 1:4, 10 μM down to 0.5 nM). Dose-response assays in OCI-AML5 cell line were conducted similarly with the following modifications: 300 cells per well were seeded in 50 μL of cell line media and cell viability was evaluated after 4 days in culture.

The next data set deals with OCI-AML5 cells. The data set is described as follows: Cell death by Annexin V/PI staining. It is filed as cell-based, H. sapiens. The conditions noted are these: 24 h.

pIC50: −log10 of the molar value. ≈ marks a conversion by molar mass, not a printed value. Where “and” joins values, the source holds several entries; their conditions need not be identical. Identical values can stand only once.

As for `CN(C)c1ccc(CC(=O)Nc2ncc(SCc3cccnc3)s2)cc1` [S656], the kinetic solubility at 24 h in data set [1] came out at 23 µM (≈ 8.84 µg/mL). In the data set with CD34+ cord blood cells (Homo sapiens, dose-response, read-out: IC50 on purified CD34+ cells from cord blood), the negative-log IC50 (pIC50) is 5.88. Further, in the data set with CD34+ cord blood cells (discovery screen, 1 μM, 6 days), the “activity against CD34+ cord blood cells” value is “low activity”. Moreover, in the data set on OCI-AML5 cells (S656 1uM), the “Early Apoptosis (FITC+/PI-)” value was 5.3% and 6.01% and 3.13%; the “Live(FITC-/PI-)” value was 87.8% and 65.8% and 86.8%; the “Necrosis (FITC-/PI+)” value is 0.1% and 0.36% and 0.49%. In addition, in the data set on OCI-AML5 cells (S656 3uM), the “Late Apoptosis (FITC+/PI+)” value is 39.5% and 53.2% and 33.4%; the “Live(FITC-/PI-)” value is 44.5% and 40.2% and 57.7%; the “Necrosis (FITC-/PI+)” value was 0.2% and 1.08% and 1.83%. Moreover, in the data set on OCI-AML5 cells (S656 5uM), the “Late Apoptosis (FITC+/PI+)” value was 56.1% and 61.6% and 54.4%; the “Live(FITC-/PI-)” value was 24.3% and 31% and 39%; the “Necrosis (FITC-/PI+)” value was 0.6% and 3.31% and 1.13%.
